Assay results taken from patent US9266848B2, “4-alkoxy-N-(2-hydroxycarbamoyl-2-piperidinyl-ethyl)-benzamide compounds as selective TACE-inhibitors for the treatment of inflammatory diseases” (GALDERMA RESEARCH & DEVELOPMENT, priority 2009, dated 2016).
pIC50: −log10 of the molar value.

What was measured:
[1] = biological target: TACE enzyme (Homo sapiens, UniProt P78536); assay: Enzymatic test of TACE inhibition; type: biochemical
[2] = biological target: ADAM10 (Homo sapiens (Human), UniProt O14672); assay: Selectivity test ADAM10; type: biochemical
[3] = biological target: MMP1 (Homo sapiens (Human), UniProt P03956); assay: Selectivity test MMP1; type: biochemical
[4] = biological target: MMP3 (Homo sapiens (Human), UniProt P08254); assay: Selectivity test MMP3; type: biochemical
MMP3, sequence (P08254 100-477, species assumed): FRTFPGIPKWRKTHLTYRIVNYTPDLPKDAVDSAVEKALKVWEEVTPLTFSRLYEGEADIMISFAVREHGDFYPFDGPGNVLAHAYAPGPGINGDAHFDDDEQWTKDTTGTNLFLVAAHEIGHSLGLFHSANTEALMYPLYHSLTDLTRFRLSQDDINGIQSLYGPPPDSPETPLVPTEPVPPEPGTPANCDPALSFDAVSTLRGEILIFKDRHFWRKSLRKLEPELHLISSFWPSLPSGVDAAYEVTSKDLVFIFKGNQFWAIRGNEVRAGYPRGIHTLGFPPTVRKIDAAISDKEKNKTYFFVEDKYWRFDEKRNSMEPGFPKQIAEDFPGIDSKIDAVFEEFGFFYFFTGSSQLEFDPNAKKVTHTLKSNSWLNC

TACE enzyme, sequence (P78536 215-824 limits assumed): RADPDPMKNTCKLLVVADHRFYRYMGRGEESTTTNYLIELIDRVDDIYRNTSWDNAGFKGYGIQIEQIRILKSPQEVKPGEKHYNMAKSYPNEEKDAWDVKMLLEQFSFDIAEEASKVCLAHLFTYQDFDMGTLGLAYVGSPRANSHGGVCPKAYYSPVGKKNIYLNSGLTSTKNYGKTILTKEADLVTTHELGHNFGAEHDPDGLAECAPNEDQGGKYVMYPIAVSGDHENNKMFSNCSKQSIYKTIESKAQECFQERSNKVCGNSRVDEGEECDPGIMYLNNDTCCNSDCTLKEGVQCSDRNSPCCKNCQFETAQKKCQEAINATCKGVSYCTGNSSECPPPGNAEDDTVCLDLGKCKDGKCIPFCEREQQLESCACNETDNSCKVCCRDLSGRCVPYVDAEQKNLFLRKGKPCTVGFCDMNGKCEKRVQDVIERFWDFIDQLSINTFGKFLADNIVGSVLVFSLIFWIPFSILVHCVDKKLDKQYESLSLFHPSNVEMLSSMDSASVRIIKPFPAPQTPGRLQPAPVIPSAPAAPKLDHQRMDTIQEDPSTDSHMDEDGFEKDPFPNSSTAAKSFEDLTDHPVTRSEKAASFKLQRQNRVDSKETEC
ADAM10, sequence (O14672 214-748, species assumed): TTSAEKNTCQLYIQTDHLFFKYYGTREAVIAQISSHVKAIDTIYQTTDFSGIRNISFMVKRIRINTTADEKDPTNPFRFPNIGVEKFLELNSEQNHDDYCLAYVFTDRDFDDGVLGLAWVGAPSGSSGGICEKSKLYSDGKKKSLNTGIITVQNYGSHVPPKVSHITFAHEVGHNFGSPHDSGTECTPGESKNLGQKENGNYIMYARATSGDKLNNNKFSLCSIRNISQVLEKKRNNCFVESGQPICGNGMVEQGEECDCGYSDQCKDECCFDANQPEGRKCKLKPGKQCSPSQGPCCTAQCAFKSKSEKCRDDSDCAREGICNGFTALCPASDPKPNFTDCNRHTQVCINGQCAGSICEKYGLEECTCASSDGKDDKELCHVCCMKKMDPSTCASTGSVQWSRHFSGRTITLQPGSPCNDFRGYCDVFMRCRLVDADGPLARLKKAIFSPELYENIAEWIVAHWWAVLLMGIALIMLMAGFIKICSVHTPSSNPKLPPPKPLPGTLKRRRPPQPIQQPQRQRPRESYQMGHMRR
MMP1, sequence (P03956 100-469, species assumed): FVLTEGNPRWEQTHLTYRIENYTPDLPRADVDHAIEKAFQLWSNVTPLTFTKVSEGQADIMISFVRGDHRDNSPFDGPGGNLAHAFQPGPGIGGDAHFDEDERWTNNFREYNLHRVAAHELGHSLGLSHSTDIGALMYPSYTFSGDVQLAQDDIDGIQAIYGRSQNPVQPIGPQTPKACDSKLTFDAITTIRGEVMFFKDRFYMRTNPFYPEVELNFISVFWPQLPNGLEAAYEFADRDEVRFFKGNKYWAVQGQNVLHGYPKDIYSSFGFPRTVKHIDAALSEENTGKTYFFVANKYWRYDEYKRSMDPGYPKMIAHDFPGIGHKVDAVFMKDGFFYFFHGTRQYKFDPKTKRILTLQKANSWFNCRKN

Structure (SMILES)	% TACE inhibition at 10 μM [1] [%]	pIC50 ([1]; fluorescent substrate 40 μM)	pIC50 [2]	pIC50 ([1]; selectivity table)	pIC50 [3]	pIC50 [4]	melting point [°C]
CC#CCOc1ccc(C(=O)NC[C@@H](C(=O)NO)N2CCCCC2)cc1 [Example 1, 4-but-2-ynyloxy-N—((S)-2-hydroxycarbamoyl-2-piperidin-1-ylethyl)benzamide]	96	8.05					
O=C(NC[C@@H](C(=O)NO)N1CCCCC1)c1ccc(OCc2cc(Cl)nc(Cl)c2)cc1 [Example 3, 4-(2,6-dichloropyridin-4-ylmethoxy)-N—((S)-2-hydroxycarbamoyl-2-piperidin-1-ylethyl)benzamide]	97	6.59					
O=C(NC[C@@H](C(=O)NO)N1CCCCC1)c1ccc(OCc2ccncc2)cc1 [Example 5, N—((S)-2-hydroxycarbamoyl-2-piperidin-1-yl-ethyl)-4-(pyridin-4-ylmethoxy)benzamide]	93	6.97	5.51	6.97		5.21	
O=C(NC[C@@H](C(=O)NO)N1CCCCC1)c1ccc(OCc2ccnc(Br)c2)cc1 [Example 8, 4-(2-bromopyridin-4-ylmethoxy)-N—((S)-2-hydroxycarbamoyl-2-piperidin-1-ylethyl)benzamide]	91						150
O=C(NC[C@@H](C(=O)NO)N1CCOCC1)c1ccc(OCc2ccncc2)cc1 [Example 9, N—((S)-2-hydroxycarbamoyl-2-morpholin-4-ylethyl)-4-(pyridin-4-ylmethoxy)benzamide]	92	6.37					
O=C(NC[C@@H](C(=O)NO)N1CCOCC1)c1ccc(OCc2ccnc(-c3ccccc3C(F)(F)F)c2)cc1 [Example 10, N—((S)-2-hydroxycarbamoyl-2-morpholin-4-ylethyl)-4-[2-(2-trifluoromethylphenyl)pyridin-4-yl-methoxy]benzamide]	90	6.05					

Next, values leading:

% TACE inhibition at 10 μM [1] [%]	pIC50 ([1]; fluorescent substrate 40 μM)	pIC50 [2]	pIC50 ([1]; selectivity table)	pIC50 [3]	pIC50 [4]	melting point [°C]	Structure (SMILES)
100	7.15	5.19	7.15	5.00			Cc1cc(COc2ccc(C(=O)NC[C@@H](C(=O)NO)N3CCCCC3)cc2)c2ccccc2n1 [Example 2, N—((S)-2-hydroxycarbamoyl-2-piperidin-1-yl-ethyl)-4-(2-methylquinolin-4-ylmethoxy)benzamide]
100							O=C(NC[C@@H](C(=O)NO)N1CCCCC1)c1ccc(OCc2ccnc(-c3ccccc3)c2)cc1 [Example 4, N—((S)-2-hydroxycarbamoyl-2-piperidin-1-yl-ethyl)-4-(2-phenylpyridin-4-ylmethoxy)benzamide]
90	7.04						Cc1ccc(COc2ccc(C(=O)NC[C@@H](C(=O)NO)N3CCCCC3)cc2)c2ccccc12 [Example 7, N—((S)-2-hydroxycarbamoyl-2-piperidin-1-yl-ethyl)-4-(4-methylnaphthalen-1-ylmethoxy)benzamide]
91	6.63		6.63				CCN(CC)[C@@H](CNC(=O)c1ccc(OCc2cc(C)nc3ccccc23)cc1)C(=O)NO [Example 11, N—((S)-2-diethylamino-2-hydroxycarbamoyl-ethyl)-4-(2-methylquinolin-4-ylmethoxy)benzamide]
